Results published in US9221761B2, “Method for inhibition of deubiquitinating activity” (Vivolux AB, priority 2011, dated 2015).

Legend:
19S RP = biological target: T1, 19S RP (Homo sapiens, UniProt P54578+Q9Y5K5); test: Ubiquitin-cleavage assay (Ub-GFP, ubiquitinated Hdm2); type: biochemical; settings: 19S RP 25 nM, 50 μM compound, 10 min
T1 construct: purchased Boston Biochem E-366
Procedure: Recombinant ubiquitin-GFP is a substrate for 19S RP DUB activity (15). […] The type of ubiquitin bonds present in the polyubiquitin chain determines the fate of an ubiquitin-modified substrate.
Ubiquitin-cleavage assay. The recombinant Ub-GFP plasmid pet19b Ub-M-GFP is generated as described (30). In brief recombinant Ub-GFP is purified from BL21 E. coli cells by His affinity purification. For cleavage assays 19S RP (25 nM) is incubated with 10 mM NEM, 250 μM TPEN or 50 μM of the compound of the invention for 10 min followed by the addition of recombinant Ub-GFP (200 nM). Ubiquitin chain disassembly reactions are performed essentially as above except K48- or K63-linked ubiquitin tetramers (50 ng) are substituted for Ub-GFP. The level of Ub-GFP cleavage or ubiquitin disassembly is determined by immunoblotting with anti ubiquitin antibodies. The ubiquitinated Hdm2 substrate is generated according to the Boston Biochem protocol (K-200). For the cleavage assay 19S RP (25 nM) is incubated with 50 μM of the compound of the invention or DMSO for 10 min followed by the addition of ubiquitinated Hdm2 substrate (100 nM). The cleavage of ubiquitinated Hdm2 substrate and ubiquitinated Hdm2 is determined by immunoblotting with anti-Hdm2 antibodies.

[1] = test system: HCT116 colon cancer cells; test: Apoptosis in isogenic clones of HCT116 colon cancer cells; type: cell-based
Description: The increase in sub G1 DNA, caspase-3 activation and cleavage of poly-ADP ribose polymerase (PARP) and cytokeratin is associated with an overall decrease in cell viability at drug concentrations that induce the accumulation of polyubiquitin connecting UPS inhibition and apoptosis. Apoptosis induction by bortezomib is sensitive to the status of the p53 tumor suppressor and over-expression of the anti-apoptotic Bcl-2 oncoprotein (11, 12). […] Cell culture. MCF7 cells are maintained in MEM/10% fetal calf serum. HCT-116 p53+/+, p53−/−, Bcl-2+/+, PUMA−/− and BAX−/− cells are maintained in McCoy's 5A modified medium/10% fetal calf serum. The HCT-116 p53+/+, p53−/−, PUMA−/− and BAX−/− are generated as described (25). The HCT-116 Bcl-2+/+ cell line was generated by transfecting parental HCT-116 p53+/+ cells with pCEP4 Bcl-2 (Addgene plasmid 16461) (26) and isolating high expression clones. FaDu and LLC3 cells are maintained in DMEM high glucose medium supplemented with 10% fetal calf serum, Na pyruvate, Hepes and non-essential amino acids. 4T1.12B carcinoma cells are maintained in RPMI medium supplemented with 10% fetal calf serum. The proteasome reporter cell line MelJuSo Ub-YFP was generated as described (12). […] Cell viability is determined by measuring acid phosphatase activity or using the FMCA method (32). […] Absorbance is measured at 405 nm. […]

HCT-116 cells = test: Cell cycle arrest and DNA damage markers; type: cell-based
HCT116 = test: FMCA (Fluorometric Microculture Cytotoxicity Assay) cytotoxicity; type: cell-based; settings: Table 2; 72 hours of continuous compound exposure
Summary of the method: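 HCT-116 cells exposed continuously to compound for 72 h; viability read by FMCA fluorescence. Survival index is test-well fluorescence as percent of untreated controls, blank subtracted.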

[2] = Dissolution in 25% by weight Kolliphor HS15; type: physicochemical; settings: 18 mg starting weight, 25% w/w Kolliphor HS15, ultrasound about 50° C., non-dissolved residue deducted
Procedure: Pharmaceutical composition E (solution). For intraperitoneal administration a 25% by weight Kolliphor HS15 stock solution was prepared by melting an entire container of Kolliphor HS15 (Sigma 42966) by warming to 60° C. and diluting with deionized water to 25% w/w. To compound #1570 (18.0 mg) in a 10 mL sample tube was added 10.0 mL of the stock solution and the tube vortexed, treated with ultrasound at about 50° C. for about 2 h, and occasionally heated to about 83° C. […] By the same procedure solutions of compounds #1546 and #1571 were prepared; these compounds were however not fully dissolved. The non-dissolved residue was weighed, and the weight deducted from the starting weight of compound (18 mg).

[3] = test system: MelJuSo Ub-YFP reporter cell line; test: Proteasome inhibition in reporter cell line, YFP accumulation in IncuCyte-FLR; type: cell-based; settings: Table 2; YFP accumulation measured for 48 hours
Summary of the method: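 MelJuSo Ub-YFP reporter cells, which accumulate YFP when the proteasome is inhibited, were exposed to compound. YFP accumulation was followed for 48 hours by automated fluorescence microscopy. Number of positive cells per field served as the proteasome-inhibition measure.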

| Structure (SMILES) | cleavage of Ub-GFP and ubiquitinated HDM2 by 19S RP (19S RP) | sensitivity of induced apoptosis to over-expression of Bcl-2 and disruption of p52, BAX or PUMA [1] | genotoxicity (DNA damage markers phosphorylated p53 Ser 15, H2AX Ser 139) (HCT-116 cells) | IC50 (HCT116) [nM] | amount of compound contained in prepared solution (10 ml) [2] [mg] | MeJuSo-UB, lowest effective conc. [3] [µM] |
| --- | --- | --- | --- | --- | --- | --- |
| C=CC(=O)N1C/C(=C\c2ccc([N+](=O)[O-])cc2)C(=O)/C(=C/c2ccc([N+](=O)[O-])cc2)C1 [b-AP15] | efficiently inhibited | insensitive | not a genotoxic agent |  |  |  |
| CC(=O)N1CCC(=Cc2ccc(F)c([N+](=O)[O-])c2)C(=O)C(=Cc2ccc(F)c([N+](=O)[O-])c2)C1 [Compound 1571] |  |  |  | 900 | 11.0 | 0.25 |
